# Data reported in patent US20220339135A1, “COMPOSITIONS AND METHODS FOR MODULATING AN INFLAMMATORY RESPONSE” (Enzychem Lifesciences Corporation, priority 2019, published 2022).
# Read-outs that look alike come from different tables or passages of the source.
# Legend:
# [1] = tested on: intracellular ROS in HaCaT cells; test: IMQ-induced intracellular ROS; format: cell-based; conditions: IMQ/PLAG treated cells
# Description: HaCaT cells were divided into two groups: 1) IMQ treated group and 2) IMQ/PLAG treated group. For IMQ treated group, cells were stimulated with IMQ (5 μg/ml) for 0, 2.5, 5, 7.5, 10, 15, 30, 60, 120 minutes. For IMQ/PLAG treated group, cells were pre-incubated with PLAG (100 μg/ml) for 1 hour and then stimulated with IMQ (5 μg/ml) for 0, 2.5, 5, 7.5, 10, 15, 30, 60, 120 minutes. (A) To detect ADORA2A on the membrane surface, cells were fixed with 2% paraformaldehyde (Sigma-Aldrich) and were blocked with PBS containing 1% BSA (Gibco, Waltham, Mass., USA). They were incubated with rabbit anti-ADORA2A antibody (Thermo) and Alexa488 conjugated anti-rabbit IgG (Invitrogen) without permeabilization. (B) To detect intracellular ROS, cells were treated with FITC conjugated-CM-H2DCFDA (Invitrogen, Carlsbad, Calif., USA) for 30 min before PLAG treating. For confocal microscopy analysis, cells were washed with PBS and mounted in DAPI-containing fluorescence microscopy mounting medium (Invitrogen). Samples were analyzed with a laser scanning confocal microscope (Carl Zeiss, Oberkochen, Germany).
# [2] = tested on: HMGB1, S100A8, S100A9, LDH in supernatant of THP-1 cells; test: MSU-induced DAMP and LDH release; format: cell-based, human; conditions: PLAG 100 μg/ml, MSU 400 μg/ml
# Description: THP-1 cells were divided into two groups: 1) MSU treated group and 2) MSU/PLAG treated group. For MSU treated group, THP-1 cells were stimulated with monosodium urate (MSU) crystal (400 μg/ml) for 0, 15, 30, 60 minutes. For MSU/PLAG treated group, THP-1 cells were pre-incubated with PLAG (100 μg/ml) for 1 hour and then stimulated with monosodium urate (MSU) crystal (400 μg/ml) for 0, 15, 30, 60 minutes. Then, cells were centrifuged, and the supernatant was harvested. Add 50 μL 5×SDS sample buffer to 200 μL supernatant of THP-1 cells. Proteins from each sample were separated by sodium dodecyl sulfate (SDS)-polyacrylamide gel electrophoresis on 8% polyacrylamide gels and the proteins were blotted onto a PVDF membrane (Millipore Corporation, Germany). The membrane was blocked with 5% non-fat dried milk (BD bioscience) in PBS containing 0.05% Tween-20 (Calbiochem) for 1 hour. The membrane was incubated with anti-high mobility group box 1 (HMGB1) (abcam), anti-S100A9 (abcam) at 4° C. overnight. After washing with PBS containing 0.05% Tween-20, the membrane was stained with goat anti-rabbit IgG peroxidase (ENZO). Target proteins were detected with Immobilon Western Chemiluminescent HRP Substrate (Millipore Corporation). Lactate dehydrogenase (LDH) of Supernatant was measured using the LDH assay kit.
# [3] = tested on: lysosomal activity in THP-1 cells; test: MSU-induced lysosomal activity; format: cell-based, human; conditions: MSU/PLAG treated cells
# Description: THP-1 cells were divided into two groups: 1) MSU treated group and 2) MSU/PLAG treated group. For MSU treated group, THP-1 cells were stimulated with monosodium urate (MSU) crystal (400 μg/ml) for 0, 10, 20, 30, 40, 50, 60 minutes. For MSU/PLAG treated group, THP-1 cells were pre-incubated with PLAG (100 μg/ml) for an hour and then stimulated with monosodium urate (MSU) crystal (400 μg/ml) for 0, 10, 20, 30, 40, 50, 60 minutes. Then, cells were harvested. (A) To detect for the P2Y6 receptor on the membrane surface, cells were fixed with 4% paraformaldehyde (Sigma-Aldrich) and incubated with PBS containing 1% BSA for blocking. They were labeled with the rabbit anti-P2Y6 receptor antibody (1:200, APR-011, Alomone Labs, Jerusalem, Israel) for 1 h. The detection Ab was used with Alexa Flour 488 goat anti-rabbit IgG (Invitrogen). (B) To detect lysosomal activity, THP-1 cells were stained with Texas red conjugated-LYSO-ID® Lysosomal Detection Kit (Enzo Life Sciences, Inc.). Finally, cells were washed with 1% FBS/PBS and mounted with DAPI-containing fluorescence microscopy mounting medium (Invitrogen). Confocal samples were analyzed with a laser scanning confocal microscope (Carl Zeiss, Oberkochen, Germany). For flow cytometric analysis, cells were washed and analyzed with a FACSVerse flow cytometer (BD Biosciences). FlowJo software (Tree Star, OR, USA) was used data processing.
# [4] = tested on: NET formation of neutrophil, bone marrow-derived cells; test: NETosis of PAK-introduced bone marrow-derived cells; format: cell-based; conditions: PAK/PLAG vs PAK
# Description: 2 hours after PAK infection, bone marrow-derived cells were harvested and detected extracellular DNA-elastase complex by using ELISA and visualized by using confocal microscopy (×400) or scanning electron microscope (SEM) (×8000). […] cells were washed with PBS and mounted in DAPI-containing fluorescence microscopy mounting medium (Invitrogen). Samples were analyzed with a laser scanning confocal microscope (Carl Zeiss, Oberkochen, Germany).
# [5] = Cumulative excretion of radioactivity after single oral administration; format: in vivo, rats
# Description: Excretion of PLAG at a single oral administration of 50 mg/kg BW to rats was examined in Mitsubishi Chemical Medicine Corporation (Japan) by radioactivity analysis. After oral administration of a single dose of 50 mg/kg, animals were individually accommodated in glass metabolic cages (Metabolica Model MC-CO2). Spontaneously excreted urine, feces, and radioactive molecules expired from each animal were collected. Sampling time points are 0-24, 24-48, 48-72 hours after administration. Then radioactivity and the excretion ratios and amount of radioactivity were determined. Radioactivity was measured by LSC (Tri-Carb 2300TR. Perkin Elmer, Inc) with the tSIE (transformed spectral index of external standard) method for the quenching correction.
# [6] = tested on: chemoradiation-induced oral mucositis
# [7] = Day 9, ChemoRT + PLAG 250 mg/kg
smiles,measurement,setting,value
"CCCCC/C=C\C/C=C\CCCCCCCC(=O)OC(COC(C)=O)COC(=O)CCCCCCCCCCCCCCC (racemic) [PLAG, 1-palmitoyl-2-linoleoyl-3-acetylglycerol]",ROS formation starts,[1],2.5 min
same,ROS returns to homeostatic levels,[1],10 min
same,"release of MSU crystal-induced HMGB1, S100A8, S100A9 and LDH to the supernatant",[2],modulated the release
same,lysosomal activity detected,[3],about 10 minutes
same,lysosomal activity returned,[3],about 30 minutes
same,NET formation of neutrophil,[4],accelerated
same,dosed radioactivity excreted into expired air,"[5]; 50 mg/kg oral, by 24 hours",71.0%
same,dosed radioactivity excreted into feces,"[5]; 50 mg/kg oral, by 24 hours",3.0%
same,dosed radioactivity excreted into urine,"[5]; 50 mg/kg oral, by 24 hours",1.9%
same,total recovery of radioactivity,"[5]; 50 mg/kg oral, by 24 hours",75.9%
same,PLAG administered degraded and metabolized,[5]; within 24 hours,approximately 76%
same,body weight Day 9,[6]; ChemoRT + PLAG 100 mg/kg,23.98 ± 2.80 g
same,oral mucosa epithelial thickness,[6]; ChemoRT + PLAG 100 mg/kg,58.06±24.97 μm
same,ulceration area percentage,[6]; ChemoRT + PLAG 100 mg/kg,29.32±5.40%
same,CXCL2 mRNA expression in tongues (relative band intensity),[6]; ChemoRT + PLAG 250 mg/kg,0.23±0.48 AU
same,IL-6 in tongue tissue extracts,[6]; ChemoRT + PLAG 250 mg/kg,8.13 ± 1.19 pg/mg
same,IL-6 mRNA expression in tongues (relative band intensity),[6]; ChemoRT + PLAG 250 mg/kg,1.34±1.06 AU
same,MIP-2 in tongue tissue extracts,[6]; ChemoRT + PLAG 250 mg/kg,2.69 ± 0.38 pg/mg
same,body weight Day 9,[6]; ChemoRT + PLAG 250 mg/kg,26.46 ± 1.68 g
same,oral mucosa epithelial thickness,[6]; ChemoRT + PLAG 250 mg/kg,85.81±12.24 μm
same,ulceration area percentage,[6]; ChemoRT + PLAG 250 mg/kg,1.45±2.36%
same,P-MLKL relative band intensity in tongue lysates,[6]; ChemoRT+PLAG,3.67±2.56 AU
same,P-RIPK1 relative band intensity in tongue lysates,[6]; ChemoRT+PLAG,0.61±0.45 AU
same,P-RIPK3 relative band intensity in tongue lysates,[6]; ChemoRT+PLAG,1.27±0.83 AU
same,body weight Day 0,[6]; ChemoRT+PLAG,25.78 ± 1.04 g
same,neutrophil infiltration in the tongues (IHC NIMP-R14),[6]; ChemoRT+PLAG,not observed
same,serum IL-6,[6]; [7],205.75 ± 30.41 pg/mL
same,serum MIP-2,[6]; [7],4.42 ± 4.04 pg/mL
same,HMGB1 localization in tongue (IHC),[6]; PLAG-treated mice,remained in the nucleus
same,body weight Day 9,"[6]; mouse, in vivo",25.66 ± 0.70 g
